Source: patent US20100093733A1, “AMIDE AND UREA DERIVATIVES FOR THE TREATMENT OF METABOLIC DISEASES” (PROSIDION LIMITED, priority 2007, published 2010)

Target: T1, human DGAT1 (Homo sapiens, UniProt O75907)
T1 construct: Full length human DGAT10RF (1467 bp); 6xHis (pFastBac HTa vector leader) (N); made in house; host or cells: Sf21 insect cells (baculovirus); microsome fraction
T1 sequence (O75907 1-488): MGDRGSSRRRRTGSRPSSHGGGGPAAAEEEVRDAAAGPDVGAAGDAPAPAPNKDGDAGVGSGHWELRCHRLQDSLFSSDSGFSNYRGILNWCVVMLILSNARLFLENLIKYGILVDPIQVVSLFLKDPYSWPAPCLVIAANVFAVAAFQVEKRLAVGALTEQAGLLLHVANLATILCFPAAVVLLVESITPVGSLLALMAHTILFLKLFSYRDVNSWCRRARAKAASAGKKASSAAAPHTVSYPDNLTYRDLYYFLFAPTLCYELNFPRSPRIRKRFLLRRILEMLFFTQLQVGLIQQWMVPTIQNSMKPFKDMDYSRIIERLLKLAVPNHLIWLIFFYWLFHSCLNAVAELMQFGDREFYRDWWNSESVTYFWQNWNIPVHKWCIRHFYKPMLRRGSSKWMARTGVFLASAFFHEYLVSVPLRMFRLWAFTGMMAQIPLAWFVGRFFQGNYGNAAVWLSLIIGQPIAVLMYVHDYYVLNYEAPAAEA
Experiment: Evaluation of DGAT1 enzyme inhibition (14C-oleoyl CoA, TLC of triglyceride)
Type: biochemical
Conditions: human DGAT1 microsomes from Sf21 cells, 30° C., 20 min
Protocol: DGAT assays for compound screening were carried out in 96-well round bottom plates in a total volume of 50 μl containing 25 mM Hepes pH 7.4, 150 mM NaCl, 2 mM MgCl2, 20 mM sodium fluoride, 1 mM dithiothreitol, 0.5 mg/mL BSA, 0.1% Triton X100, 200 uM DAG (1,2-dioleoyl-sn-glycerol) and 15 μM [^14C] oleoyl CoA (specific activity 50-60 mCi/mmol) and a range of inhibitor concentrations in 1% DMSO. Reactions were initiated by the addition of human DGAT1 microsomes (0.4 μg/well) followed by incubation at 30° C. for 20 min. At the end of incubation, reactions were stopped by the addition of 5 μl 0.5N HCl, then 4 μl of each reaction was spotted directly onto a silica gel 60 (20×20 cm) TLC plate pre-scored to give twenty 1 cm wide lanes for lipid separation. […]
Following chromatography, the triglyceride spots were cut out and placed in a scintillation vial for counting. The percentage inhibition values were calculated relative to control and where appropriate IC50 values were derived using the 4 parameter logistic model in XL fit.
The enzyme source used for the assay was prepared from Sf21 cells infected with baculovirus expressing human DGAT1. Full length human DGAT10RF (1467 bp) (Nucleotide Accession: NM 012079; Protein Accession: NP036211) was PCR amplified from human liver cDNA (Marathon Ready) and cloned into pFastBac HTa vector (Life Technologies) containing a 6-Histidine N-terminus. […]

IC50 [nM] | SMILES
1800 | COC(=O)[C@H]1CC[C@H](c2ccc(NC(=O)c3cc4ccccc4s3)cn2)CC1 [Example 114, Trans-4-{5-[(Benzo[b]thiophene-2-carbonyl)amino]-pyridin-2-yl}-cyclohexane-carboxylic acid methyl ester]
1300 | COc1ccc(C)cc1NC(=O)Nc1ccc([C@H]2CC[C@](O)(CC(=O)O)CC2)cc1 [Example 137, Syn-(1-Hydroxy-4-{4-[3-(2-methoxy-5-methylphenyl)-ureido]phenyl}-cyclohexyl)-acetic acid]
